Reference: US12054500B2, “Arginase inhibitors” (ARCUS BIOSCIENCES, INC., priority 2018, dated 2024)

Molecular target: T1, recombinant human ARG1 (Homo sapiens, UniProt P05089)
T1 sequence (P05089 1-322): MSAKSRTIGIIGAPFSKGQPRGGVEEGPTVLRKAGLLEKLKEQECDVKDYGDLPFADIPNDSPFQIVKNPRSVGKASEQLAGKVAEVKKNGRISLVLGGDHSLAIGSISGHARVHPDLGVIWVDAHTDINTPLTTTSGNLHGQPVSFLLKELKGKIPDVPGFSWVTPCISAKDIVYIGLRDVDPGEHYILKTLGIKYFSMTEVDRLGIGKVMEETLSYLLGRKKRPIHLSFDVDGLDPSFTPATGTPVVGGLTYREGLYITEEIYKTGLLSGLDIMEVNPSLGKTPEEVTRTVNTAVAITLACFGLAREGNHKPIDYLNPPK
Experiment: Arginase coupled enzymatic assay using recombinant human ARG1
Assay type: biochemical
Details: 2 nM ARG1, 0.8 mM L-Arginine, 10 mM sodium phosphate pH 7.4, 37° C.; read-out: Potency: Arginase 1 inhibition IC50
Protocol: Measurement of Compound Potency by Arginase Coupled Enzymatic Assay Using Recombinant Human ARG1 and ARG2
Purified recombinant human ARG1 and ARG2 were prepared in 50 mM Bicine, pH 8.5, 100 μM MnCl2, 20% glycerol and 1 mM DTT at a final stock concentration of 14.4 μM and 7.56 μM respectively. 2.5 nM of either ARG1 or ARG2 were incubated with varying concentrations of compounds in 10 mM sodium phosphate, pH 7.4, 0.1 mM MnCl2 and 2.5% DMSO in a total volume of 40 μl in a 384-well microplate (Corning™ #3640) at 37° C. for 1 h. The arginase enzymatic reaction was initiated by addition of 10 μl of 4 mM L-Arginine pre-incubated in 10 mM sodium phosphate, pH 7.4, and 0.1 mM MnCl2 at 37° C. into the enzyme and compound mixture, giving the final reaction conditions: 2 nM of ARG1 or ARG2 and 0.8 mM of L-Arginine in 10 mM sodium phosphate, pH 7.4, 0.1 mM MnCl2 and 2% DMSO with varying concentrations of compounds. Following 2 h incubation at 37° C., the arginase enzymatic reaction was stopped by transfer of 10 μl of reaction into 10 μl of detection mix (204 μM Amino-2-Borono-6-Hexanoic Acid, 0.25 μl Arginase Enzyme mix, 0.25 μl Arginase Developer, 0.25 μl Arginase Converter Enzyme in Arginase Assay Buffer from Arginase Activity Colorimetric Assay Kit, BioVision Inc. #K755-100) in a transparent 384-well microplate (Greiner #781801). The plate was immediately put into a plate reader (Synergy™ Neo2 Multi-Mode Microplate Reader) to monitor absorption at 570 nm at 37° C. Absorption values at 12-20 min were used to calculate compound potency. The value of the DMSO blank (MIN inhibition=100% activity) was used as a negative control. The positive control was established by adding 8 μl of enzyme and DMSO mix into 10 μl of detection mix followed by addition of 2 μl of L-Arginine (MAX inhibition=0% activity). To calculate the percent activity, Equation 1 was used. Abs570nm is the value at a given compound concentration:
A counter-screen was performed to identify any inhibition of the coupling enzymes by the test compounds. 10 μl of 0.26 mM of urea with varying concentrations of compounds in 10 mM sodium phosphate, pH 7.4, 0.1 mM MnCl2 and 2% DMSO were added into 10 μl of detection mix in place of the arginase enzymatic reaction mix. Absorption was monitored at 570 nm as described above. The values of a no substrate blank (without urea; MAX inhibition=0% activity) and a DMSO blank (MIN inhibition=100% activity) were used as positive and negative controls respectively. […] Inactivity in the counter-screen was used to confirm that results accurately reflected IC50 values for ARG1 and ARG2.

| IC50 | SMILES |
| --- | --- |
| 0.1 to 1 µM | NCCN1C[C@@H]2C[C@@](N)(C(=O)O)[C@@H](CCCB(O)O)[C@@H]2C1 |
| < 0.1 µM | N[C@@]1(C(=O)O)C[C@H]2CNC[C@H]2[C@@H]1CCCB(O)O |
| < 0.1 µM | N[C@@]1(C(=O)O)C[C@H]2CN(C(CO)CCl)C[C@H]2[C@@H]1CCCB(O)O (some centres unmarked) |
| 0.1 to 1 µM | N[C@@]1(C(=O)O)C[C@H]2CN(C3COC3)C[C@H]2[C@@H]1CCCB(O)O |

The remaining lines, values behind:

| SMILES | IC50 |
| --- | --- |
| N[C@]1(C(=O)O)C[C@H]2CN(C(=O)[C@@H]3CCCN3)C[C@H]2[C@H]1CCCB(O)O | 0.1 to 1 µM |
| C[C@H](N)C(=O)N1C[C@@H]2C[C@@](N)(C(=O)O)[C@@H](CCCB(O)O)[C@@H]2C1 | 0.1 to 1 µM |
| CC1(C)[C@H]2C[C@@H]3OB(CCC[C@H]4[C@@H]5CNC[C@@H]5C[C@@]4(N)C(=O)O)O[C@]3(C)[C@@H]1C2 | 0.1 to 1 µM |
| C[C@H](N)C(=O)N1C[C@@H]2C[C@](N)(C(=O)O)[C@H](CCCB(O)O)[C@@H]2C1 | 0.1 to 1 µM |
